How the values were obtained:
[1] = system: human primary hair follicles (melanocyte stem cells at the bulge area); experiment: Pigmentation assay on isolated human primary hair follicles in culture, H2O2 stress; type: cell-based; details: positive control, 3% H2O2
Excerpt: A novel platform for assaying human primary hair follicles in culture was developed to profile anti-graying potentially active agents (see FIG. 1). Normal human scalp specimens were obtained from various surgeries or from donor and recipient scalp hair derived from plastic surgery. […] Intact human skin specimens were implanted in semi-solid agarose (2% agarose diluted with Williams' medium E (Gibco™) at 1:5 ratio). The hair follicle culture medium was based on Williams' medium E (Gibco™) supplemented with 2 mmol/L L-glutamine, hydrocortisone 10 ng/ml, insulin 10 μg/ml, penicillin 100 U/ml, streptomycin 100 μg/ml, and amphotericin B 25 μg/ml. To maximize the effects of the test formulations and to exclude the variability of delivery ability of the formulations through the epidermis, the test formulations were applied directly at the bulge area of the follicles using the method as follows: (1) tissue preparation and culture for 8-24 hrs. (2) Isolation of individual follicles (3) Vertically embedding in semisolid media (4) Treatment with test formulation/Positive control on the bulge area of the hair follicles (5) Incubation for 24 hrs. (6) 3% H2O2 treatment (7) Incubation for 2 hrs. (8) Repositioning in semisolid media (9) Z-stacking imaging & Analysis on day 1, 3, 7 after H2O2 treatment For the experiment, a total of 602 follicles from 9 different donors were utilized. […]

[2] = system: ROS in hair follicles; experiment: Reactive Oxygen Species (ROS) assay on individual follicles; type: cell-based, human; details: NAC pretreatment, ionizing radiation 4, 8 or 12 Gy or 3% H2O2; ROS labeling 2 hours after treatment; compared to IR or H2O2 alone
Protocol: A Reactive Oxygen Species (ROS) assay was used for individual follicle observation with 5-(and-6)-chloromethyl-2′,7′-dichlorodihydrofluorescein diacetate, acetyl ester (CM-H2DCFDA). CM-H2DCFDA is a chloromethyl derivative of […], 2′,7′-dichlorohydrofluorescein diacetate (H2DCFDA), and is useful as an indicator for general ROS in cells. ROS should be labeled after 2 hours and imaged in 20 minutes, and the protocol included dissection of the follicles first before H2O2 treatment. […] The ROS detection protocol was as follows: (1) tissue preparation and culture (2) Isolation of individual follicles (3) Vertically embedding in semisolid media (4) Antioxidant treatment (NAC) on the bulge area of the hair follicles (5) Incubation for […]. (6) Treatment with ionizing radiation (e.g., 8.0 Gray) or H2O2 (7) Incubation for 2 hrs. […] NAC was applied for 24 hours before the ionizing radiation or H2O2 treatment and then 2 hours after treatment, ROS labeling and imaging have been done. The ionizing radiation was administered at doses of 4 gy, 8 Gy, or 12 Gy. Topical administration of hydrogen peroxide was used at a dose of 3%. The ROS positive cells were counted and they were normalized to DAPI positive cells.

[3] = system: hair follicles; experiment: Pigmented cell counts after NAC treatment (FIG. 12); type: cell-based, human; details: statistical significance not evaluable
[4] = system: melanocyte stem cells (MSCs) in the bulge areas of hair follicles of human scalp skin; experiment: Melanocyte stem cell damage and pigmentation assay, topical application on intact human skin specimens; type: cell-based; details: topical 24 hours, then 3% H2O2 24 hours; eight follicles per treatment
Protocol: Formulation A, placebo A, or the positive control (CPC) were topically applied to the human skin specimens for 24 hours. The specimens were next treated with 3% hydrogen peroxide (H2O2) for 24 hours at 37° C. and incubated in 5% CO2 to trigger the DNA-damage response. After 24 hours of hydrogen peroxide treatment, all portions of the hair follicles were isolated from stress treated human skin scalp. Upon isolation, the hair follicles were washed gently several times in Phosphate-buffered saline (PBS) and transferred intact into soft agar with fresh growth medium in a cell culture incubator at 37° C. and 5% CO2. Hair follicles were examined under bright field microscopy after completion of the hydrogen peroxide treatment daily from day 0 (completion of peroxide treatment) to day 7. Pigmented melanocyte stem cells (MSCs) found in the bulge areas of hair follicles were counted in the bright field view. Formulation A and Placebo A, and the positive control (CPC) were tested, and eight follicles were investigated from each treatment. Paired T-test was applied for data analysis. […] P-value of 0.05 was set as the threshold of statistical significance. […] Eight follicles were analyzed in each test set.

CC(=O)N[C@@H](CS)C(=O)O [NAC, N-acetyl-cysteine]
pigmentation prevention at the bulge area of the follicle [1]: effective on the pigmentation prevention with statistical significance | ROS generation (ROS positive cells normalized to DAPI positive cells) [2]: decreased compared to IR or H2O2 treatment alone | pigmented cell counts after the NAC treatment [3]: tendency showing decreased pigmented cell counts | hydrogen peroxide-induced pigmentation [4]: suppressed

— patent US20190167561A1, “METHODS AND COMPOSITIONS FOR REDUCING THE GRAYING OF HAIR” (Natura Cosmeticos SA, priority 2016, published 2019)
